According to patent US20060024392A1, “Compositions and methods for enhancing the effectiveness of a chemotherapeutic agent” (priority 2004, published 2006):

How the values were obtained:
[1] = tested on: NCM460 normal colon cells; assay: Sulforhodamine B (SRB) cell growth assay in NCM460 normal colon cells; assay type: cell-based, human
Method: HT-29, a cell line derived from colorectal adenocarcinoma (ATCC, HTB 38), grows in McCoy's 5A medium (Biowhittaker, Inc. Walkersville, Md.). NCM460, a cell line derived from a normal human colon (InCell Corp. San Antonio, Tex.), grows in M3 Base media (InCell Corp. San Antonio, Tex.).
Both cell lines are kept at 37° C. and 5% CO2 atmosphere. Both media are supplemented with 10% fetal bovine serum (FBS, Biowhittaker, Inc. Walkersville, Md.).
Cells are fixed in situ by the gentle addition of 50 μl of cold 50% (w/v) TCA (final concentration, 10% TCA) and incubated for 60 minutes at 4° C. The supernatant is discarded, and the plates are washed five times with tap water and air dried. Sulforhodamine B (SRB) solution (100 μl) at 0.4% (w/v) in 1% acetic acid is added to each well, and plates are incubated for 10 minutes at room temperature. After staining, unbound dye is removed by washing five times with 1% acetic acid and the plates are air dried. Bound stain is subsequently solubilized with 100 μl 10 mM trizma base for 5 minutes, and the absorbance at wavelength of 490 nm was spectrophotometrically measured using a microplate reader Elx800 (Bio-Tek instruments, Inc.).
Cells were seeded in 96-well cluster tissue culture plates (Costar), containing 100 μl complete growth medium per well at densities of 5,000 cells per well. Incubated at 37° C. in a humidified tissue culture incubator. After 24 Hour, 100 μl complete medium containing 5 half-log dilutions of the 5FU from 2*10^−4 to 2*10^−6 M was added into each well (final concentrations are from 10^−4 to 10^−6 M). Six replicates were used for each concentration. Media containing 0.125% DMSO was used as control. After 48 hours of incubation with 5FU in medium, cell proliferation was assessed using the SRB assay.
Percentage growth (Growth%) is calculated as: [(Ti−Tz)/(C−Tz)]×100 [absorbance measurements at time zero (Tz), control growth (C), and test growth in the presence of drug at the different concentration levels (Ti)].
Growth inhibition of 50% (GI50) is calculated from [(Ti−Tz)/(C−Tz)]×100=50, which is the drug concentration resulting in a 50% reduction in the net protein increase (as measured by SRB staining) in control cells during the drug incubation.
Similar method as Experiment 1 was used, except cells were exposed to 5FU at concentration ranging from 10^−4.5 to 10^−7 M. Media containing 0.01% DMSO was used as control. Lower concentrations were used since it was observed that 0.1% DMSO inhibited the growth of NCM460 cells. The experiment was repeated 5 times.
The protocol was the same as Experiment 3, except cells were exposed to 5FU at concentration ranging from 10^−5 to 10^−7 M with chokeberry ARE at concentration of 5, 15.6, 50 μg monomeric anthocyanin/ml growth media. […] Differences in response are most evident at the 5 FU concentration of 10^−6 M and ARE concentration of 15.6 μg monomeric anthocyanin/ml. In normal cells, there is no difference in the percent growth by 5FU with or without ARE, whereas in colon cancer cells, growth with 5FU alone was 80% of control, and further reduced to 40% with ARE and 5 FU.

[2] = rats, 72 hours after 200 mg/kg 5FU i.p., AIN93 diet with or without 4 g anthocyanin/kg

Text for male Sprague Dawley rats: The purpose of this experiment was to determine if the toxicity of 5FU would be decreased by feeding rats a diet supplemented with anthocyanin-rich extract (ARE) prior to and during 5FU treatment.
Rats were randomly allocated in two diet groups and maintained for two weeks on either AIN93 or AIN93 plus 4 g anthocyanin/kg (Table 7).
Seventy-two hours after the 5FU injections, rats were euthanized by CO2 inhalation. Blood was collected by heart puncture into heparinized tubes, the stomach and entire intestines were removed and stomach, duodenum, jejunum, ileum, cecum and colon sections were fixed in formalin for histopathological evaluation. In addition to the gastrointestinal tract, the following organs were also collected at necropsy for histopathological evaluation: heart, liver, kidney, spleen and bone marrow. These tissues were also fixed in formalin. All tissues were then routinely processed and stained with H&E for pathological evaluation.

**Q.** What does the source list for `O=c1[nH]cc(F)c(=O)[nH]1` [5FU, 5-fluorouracil]?
**A.** clinical signs in preliminary experiment (male Sprague Dawley rats; 2 rats, 5FU 200 mg/kg): caused weight loss and diarrhea; bone marrow histopathology (male Sprague Dawley rats; [2]): panmyelophthisis of the bone marrow with congestion; kidney histopathology (male Sprague Dawley rats; [2]): acute toxic nephropathy of the proximal convoluted tubules was present in all 5FU treated animals in mild to moderate severity; small intestine histopathology (male Sprague Dawley rats; [2]): intestinal villi were moderately to severely denuded; overall histopathological changes in tissues (male Sprague Dawley rats; rats, 5FU 200 mg/kg i.p. or AIN93 plus 4 g anthocyanin/kg diet with saline): significant acute toxicological changes; Growth % ([1]; 5FU 1.0E−4.5 M, experiment 1): 45.13%; OD ([1]; 5FU 1.0E−4.5 M, experiment 1): 0.264; Growth % ([1]; 5FU 1.0E−4.5 M, experiment 2): 33.85%; OD ([1]; 5FU 1.0E−4.5 M, experiment 2): 0.242; Growth % ([1]; 5FU 1.0E−4.5 M, experiment 3): 36.70%; OD ([1]; 5FU 1.0E−4.5 M, experiment 3): 0.256; Growth % ([1]; 5FU 1.0E−5 M, experiment 1): 53.85%; OD ([1]; 5FU 1.0E−5 M, experiment 1): 0.281; Growth % ([1]; 5FU 1.0E−5 M, experiment 2): 48.21%; OD ([1]; 5FU 1.0E−5 M, experiment 2): 0.27; Growth % ([1]; 5FU 1.0E−5 M, experiment 3): 45.41%; OD ([1]; 5FU 1.0E−5 M, experiment 3): 0.275; Growth % ([1]; 5FU 1.0E−5 M, experiment 4): 57.58%; OD ([1]; 5FU 1.0E−5 M, experiment 4): 0.285; Growth % ([1]; 5FU 1.0E−5 M, experiment 5): 51.41%; OD ([1]; 5FU 1.0E−5 M, experiment 5): 0.279; Growth % ([1]; 5FU 1.0E−5.5 M, experiment 1): 55.38%; OD ([1]; 5FU 1.0E−5.5 M, experiment 1): 0.284; Growth % ([1]; 5FU 1.0E−5.5 M, experiment 2): 67.69%; OD ([1]; 5FU 1.0E−5.5 M, experiment 2): 0.308; Growth % ([1]; 5FU 1.0E−5.5 M, experiment 3): 60.55%; OD ([1]; 5FU 1.0E−5.5 M, experiment 3): 0.308; Growth % ([1]; 5FU 1.0E−5.5 M, experiment 4): 75.38%; OD ([1]; 5FU 1.0E−5.5 M, experiment 4): 0.332; Growth % ([1]; 5FU 1.0E−5.5 M, experiment 5): 72.54%; OD ([1]; 5FU 1.0E−5.5 M, experiment 5): 0.339; Growth % ([1]; 5FU 1.0E−6 M, experiment 1): 56.41%; OD ([1]; 5FU 1.0E−6 M, experiment 1): 0.286; Growth % ([1]; 5FU 1.0E−6 M, experiment 2): 63.08%; OD ([1]; 5FU 1.0E−6 M, experiment 2): 0.299; Growth % ([1]; 5FU 1.0E−6 M, experiment 3): 66.06%; OD ([1]; 5FU 1.0E−6 M, experiment 3): 0.32; Growth % ([1]; 5FU 1.0E−6 M, experiment 4): 93.56%; OD ([1]; 5FU 1.0E−6 M, experiment 4): 0.38; Growth % ([1]; 5FU 1.0E−6 M, experiment 5): 87.32%; OD ([1]; 5FU 1.0E−6 M, experiment 5): 0.381; Growth % ([1]; 5FU 1.0E−6.5 M, experiment 1): 59.49%; OD ([1]; 5FU 1.0E−6.5 M, experiment 1): 0.292; Growth % ([1]; 5FU 1.0E−6.5 M, experiment 2): 83.59%; OD ([1]; 5FU 1.0E−6.5 M, experiment 2): 0.339; Growth % ([1]; 5FU 1.0E−6.5 M, experiment 3): 78.44%; OD ([1]; 5FU 1.0E−6.5 M, experiment 3): 0.347; Growth % ([1]; 5FU 1.0E−6.5 M, experiment 4): 97.35%; OD ([1]; 5FU 1.0E−6.5 M, experiment 4): 0.39; Growth % ([1]; 5FU 1.0E−6.5 M, experiment 5): 92.61%; OD ([1]; 5FU 1.0E−6.5 M, experiment 5): 0.396; Growth % ([1]; 5FU 1.0E−7 M, experiment 4): 99.62%; OD ([1]; 5FU 1.0E−7 M, experiment 4): 0.396; Growth % ([1]; 5FU 1.0E−7 M, experiment 5): 89.79%; OD ([1]; 5FU 1.0E−7 M, experiment 5): 0.388
